The values below are quoted from earlier work in patent US20260337593A1, “METHOD AND MEANS FOR ENGINEERING NON-RIBOSOMAL PEPTIDES” (JOHANN WOLFGANG GOETHE-UNIVERSITÄT FRANKFURT AM MAIN, priority 2022, published 2026).

For the data set, the target named is Mycobacterium tuberculosis proteasome (Mycobacterium tuberculosis, UniProt P9WHT9). As to conditions: role: inhibitor; literature reference 60.
Sequence of Mycobacterium tuberculosis proteasome (P9WHT9 whole entry, looked up): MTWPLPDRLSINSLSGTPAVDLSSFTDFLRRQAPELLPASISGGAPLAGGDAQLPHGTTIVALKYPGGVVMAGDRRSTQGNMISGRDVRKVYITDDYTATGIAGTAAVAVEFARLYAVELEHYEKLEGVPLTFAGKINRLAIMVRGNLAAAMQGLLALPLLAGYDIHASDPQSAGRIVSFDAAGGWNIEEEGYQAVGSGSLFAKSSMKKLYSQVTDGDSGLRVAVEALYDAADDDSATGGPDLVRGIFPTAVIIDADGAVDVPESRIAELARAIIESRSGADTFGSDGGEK

For the compound `CCCCCCCCC[C@@H](O)CC(=O)N[C@@H](CC(N)=O)C(=O)N[C@@H](CCC(N)=O)C(=O)N[C@H](C=O)CC(C)C` [fellutamide B], the “binding of the active site's threonine” value was “reversible binding”.
